Measured values reported in patent publication US20240251795A1, “METHOD FOR C[…] RESISTANT PESTS & COMPOUNDS THEREFOR” (priority 2021, published 2024).
In brackets after ≈: the same amount, converted by molar mass.

System: Plutella xylostella resistant strain R4 (RyR mutation G4946E)
Assay: Resistant Plutella xylostella R4 (Diamond back moth) larvicide L1, feeding/contact
Type: in vivo
Conditions: L1, artificial diet in 24-well plates, around 30 eggs; mortality vs untreated assessed 8 days after infestation
Protocol: Resistant Plutella xylostella R^4 (Diamond back moth) larvicide L1, feeding/contact 24-well microtiter plates with artificial diet were treated with aqueous test solutions prepared from 10′000 ppm DMSO stock solutions by pipetting. After drying, around 30 Plutella eggs were pipetted through a plastic stencil onto a gel blotting paper and the plate was closed with it. The samples were assessed for mortality in comparison to untreated samples 8 days after infestation.
CTPR was used as standard and a resistance factor of 242 was obtained for this strain
Plutella xylostella resistant strain R4 originated in the lab in 2021 from crossing the R1 strain with a lab-reared susceptible P. xylostella strain (SUS). R4 can be reared and tested on artificial diet and also carries the RyR mutation G4946E conferring resistance to diamides. The strain is selected approximately every two weeks with chlorantraniliprole.

SMILES	Rate providing at least 80% control of the resistant strain of Plutella xylostella R4 [ppm]
CNC(=O)c1cc2nc(C)oc2c(C)c1NC(=O)c1cc(Br)nn1-c1ncccc1Cl	>50
Cn1cc2c(Cl)c(NC(=O)c3cc(C(F)(F)F)nn3-c3ncccc3Cl)c(C(N)=O)cc2n1 [P.36, 4-chloro-5-[[2-(3-chloro-2-pyridyl)-5-(trifluoromethyl)pyrazole-3-carbonyl]amino]-2-methyl-indazole-6-carboxamide]	12.5
Cc1nc2cc(C(N)=O)c(NC(=O)c3cc(Br)nn3-c3ncccc3Cl)c(C)c2o1 [P.46, 6-[[5-bromo-2-(3-chloro-2-pyridyl)pyrazole-3-carbonyl]amino]-2,7-dimethyl-1,3-benzoxazole-5-carboxamide]	12.5
CC(C)NC(=O)c1cc2nn(C)cc2c(Cl)c1NC(=O)c1cc(C(F)(F)F)nn1-c1ncccc1Cl	>50

Same assay, conditions: strain R4; CTPR used as standard

SMILES	resistance factor
CNC(=O)c1cc(Cl)cc(C)c1NC(=O)c1cc(Br)nn1-c1ncccc1Cl [CTPR, chlorantraniliprole, reference compound]	242

System: not given
Assay: not given
Conditions: not given

melting point [°C]	SMILES
204 to 206	NC(=O)c1nc2ccccc2c(Cl)c1NC(=O)c1cc(Br)nn1-c1ncccc1Cl [P.18, 3-[[5-bromo-2-(3-chloro-2-pyridyl)pyrazole-3-carbonyl]amino]-4-chloro-quinoline-2-carboxamide]
223 to 225	Cc1c(NC(=O)c2cc(C(F)(F)F)nn2-c2ncccc2Cl)c(C(N)=O)cc2c1OC(F)(F)O2
158 to 160	NC(=O)c1cc2ccccc2c(Cl)c1NC(=O)c1cc(OCC(F)(F)F)nn1-c1ncccc1Cl [P.11, N-(3-carbamoyl-1-chloro-2-naphthyl)-2-(3-chloro-2-pyridyl)-5-(2,2,2-trifluoroethoxy)pyrazole-3-carboxamide]
175 to 180	Cc1nc2cc(C(N)=O)c(NC(=O)c3cc(Br)nn3-c3ncccc3Cl)c(C)c2s1 [P.45, 6-[[5-bromo-2-(3-chloro-2-pyridyl)pyrazole-3-carbonyl]amino]-2,7-dimethyl-1,3-benzothiazole-5-carboxamide]
190 to 226	NC(=O)c1cc2cc(Br)ccc2c(Cl)c1NC(=O)c1cc(Cn2nnc(C(F)(F)F)n2)nn1-c1ncccc1Cl
143 to 145	NC(=O)c1cc2ccccc2c(Cl)c1NC(=O)c1cc(OC(F)F)nn1-c1ncccc1Cl [P.20, N-(3-carbamoyl-1-chloro-2-naphthyl)-2-(3-chloro-2-pyridyl)-5-(difluoromethoxy)pyrazole-3-carboxamide]
170 to 172	NC(=O)c1cc2cc(Br)ccc2c(Br)c1NC(=O)c1cc(Cl)nn1-c1ncccc1Cl [P.31, 5-chloro-2-(3-chloro-2-pyridyl)-N-(1,6-dibromo-3-carbamoyl-2-naphthyl)pyrazole-3-carboxamide]
135 to 140	Cc1c(NC(=O)c2cc(OCC(F)(F)F)nn2-c2ncccc2Cl)c(C(N)=O)cc2ncsc12 [P.44, 6-[[2-(3-chloro-2-pyridyl)-5-(2,2,2-trifluoroethoxy)pyrazole-3-carbonyl]amino]-7-methyl-1,3-benzothiazole-5-carboxamide]
154 to 156	COc1cc(C(=O)Nc2c(C(N)=O)cc3ccccc3c2Cl)n(-c2ncccc2Cl)n1 [P.13, N-(3-carbamoyl-1-chloro-2-naphthyl)-2-(3-chloro-2-pyridyl)-5-methoxy-pyrazole-3-carboxamide]
216 to 218	Cc1ccc2c(C)c(NC(=O)c3cc(C(F)(F)F)nn3-c3ncccc3Cl)c(C(N)=O)cc2c1 [P.32, N-(3-carbamoyl-1,6-dimethyl-2-naphthyl)-2-(3-chloro-2-pyridyl)-5-(trifluoromethyl)pyrazole-3-carboxamide]
155 to 157	NC(=O)c1cc2ccccc2c(Cl)c1NC(=O)c1cc(C(F)(F)F)nn1-c1ncccc1Cl [P.10, N-(3-carbamoyl-1-chloro-2-naphthyl)-2-(3-chloro-2-pyridyl)-5-(trifluoromethyl)pyrazole-3-carboxamide]
264 to 266	NC(=O)c1cc2ccccc2c(Cl)c1NC(=O)c1cc(OCC(F)(F)C(F)(F)F)nn1-c1ncccc1Cl
149 to 157	NC(=O)c1cc2cc(Br)ccc2c(Cl)c1NC(=O)c1cc(Cn2ncc3c(Cl)cccc32)nn1-c1ncccc1Cl
242 to 244	Cc1c(NC(=O)c2cc(Br)nn2-c2ncccc2Cl)c(C(N)=O)cc2nn(C)cc12

System: multi-resistant Plutella xylostella larvae having the G4946E resistance mutation (strain R1)
Assay: Resistant Plutella xylostella R1 (Diamond Back Moth) Larvicide L3, Feeding/Contact
Type: in vivo
Conditions: Plutella xylostella, in Brassica rapa, 96 h, read-out: Rate providing at least 80% control of the resistant strain of Plutella xylostella R1
Protocol: Resistant Plutella xylostella R1 (Diamond Back Moth) Larvicide L3, Feeding/Contact
Chinese cabbage plants were sprayed with diluted test solutions in an application chamber. Cut off leaves were placed into petri dishes with wetted filter paper and infested 1 day after application with 10 L3 multi-resistant Plutella xylostella larvae having the G4946E resistance mutation. Samples were assessed 4 days after infestation for mortality and growth regulation. CTPR was used as standard and a resistance factor of 146 was obtained for this strain.
Plutella xylostella resistant strain R1 originally collected from Taiwan in 2012 that carries the RyR mutation G4946E conferring resistance to diamides. The strain is reared on cabbage plants (Brassica aleracea) and selected approximately every two weeks with chlorantraniliprole.

SMILES	EC80 [µg/mL]
NC(=O)c1cc2cc(Br)ccc2c(Cl)c1NC(=O)c1cc(C(F)(F)F)nn1-c1ncccc1Cl [P.28, N-(6-bromo-3-carbamoyl-1-chloro-2-naphthyl)-2-(3-chloro-2-pyridyl)-5-(trifluoromethyl)pyrazole-3-carboxamide]	50 (≈ 87.2 µM)
CNC(=O)c1cc2nc(C(F)(F)F)ccc2c(C)c1NC(=O)c1cc(C(F)F)nn1-c1ncccc1Cl	200 (≈ 371 µM)
O=C(NC1CC1)c1cc2cc(Br)ccc2c(Cl)c1NC(=O)c1cc(Br)nn1-c1ncccc1Cl	200 (≈ 320 µM)
CNC(=O)c1cc2cc(Br)ccc2c(Br)c1NC(=O)c1cc(Br)nn1-c1ncccc1Cl	> 200
Cn1cc2c(Cl)c(NC(=O)c3cc(C(F)(F)F)nn3-c3ncccc3Cl)c(C(N)=O)cc2n1 [P.36, 4-chloro-5-[[2-(3-chloro-2-pyridyl)-5-(trifluoromethyl)pyrazole-3-carbonyl]amino]-2-methyl-indazole-6-carboxamide]	3 (≈ 6.02 µM)
CNC(=O)c1cc2cc(Br)ccc2c(Br)c1NC(=O)c1cc(C(F)(F)F)nn1-c1ncccc1Cl	50 (≈ 79.2 µM)
CNC(=O)c1cc2cc(Br)ccc2c(Br)c1NC(=O)c1cc(OCC(F)(F)F)nn1-c1ncccc1Cl	12.5 (≈ 18.9 µM)
NC(=O)c1cc2cc(Br)ccc2c(Br)c1NC(=O)c1cc(C(F)(F)F)nn1-c1ncccc1Cl [P.4, 2-(3-chloro-2-pyridyl)-N-(1,6-dibromo-3-carbamoyl-2-naphthyl)-5-(trifluoromethyl)pyrazole-3-carboxamide]	12.5 (≈ 20.2 µM)
NC(=O)c1cc2cc(Br)ccc2c(Br)c1NC(=O)c1cc(OCC(F)(F)F)nn1-c1ncccc1Cl [P.1, 2-(3-chloro-2-pyridyl)-N-(1,6-dibromo-3-carbamoyl-2-naphthyl)-5-(2,2,2-trifluoroethoxy)pyrazole-3-carboxamide]	3 (≈ 4.63 µM)
NC(=O)c1cc2cc(Br)ccc2c(Br)c1NC(=O)c1cc(Br)nn1-c1ncccc1Cl [P.8, 5-bromo-2-(3-chloro-2-pyridyl)-N-(1,6-dibromo-3-carbamoyl-2-naphthyl)pyrazole-3-carboxamide]	50 (≈ 79.6 µM)
CC(C)NC(=O)c1cc2cc(Br)ccc2c(Cl)c1NC(=O)c1cc(Br)nn1-c1ncccc1Cl	200 (≈ 319 µM)
NC(=O)c1cc2cc(Br)ccc2c(Cl)c1NC(=O)c1cc(Cl)nn1-c1ncccc1Cl [P.26, N-(6-bromo-3-carbamoyl-1-chloro-2-naphthyl)-5-chloro-2-(3-chloro-2-pyridyl)pyrazole-3-carboxamide]	50 (≈ 92.7 µM)
Cc1c(NC(=O)c2cc(C(F)F)nn2-c2ncccc2Cl)c(C(N)=O)cc2nc(C(F)(F)F)ccc12 [P.7, 6-[[2-(3-chloro-2-pyridyl)-5-(difluoromethyl)pyrazole-3-carbonyl]amino]-5-methyl-2-(trifluoromethyl)quinoline-7-carboxamide]	12.5 (≈ 23.8 µM)
CNC(=O)c1cc2cc(Cl)ccc2c(Cl)c1NC(=O)c1cc(Br)nn1-c1ncccc1Cl	200 (≈ 361 µM)
CC(C)NC(=O)c1cc2nn(C)cc2c(Cl)c1NC(=O)c1cc(C(F)(F)F)nn1-c1ncccc1Cl	> 50
CNC(=O)c1cc2cc(Br)ccc2c(Cl)c1NC(=O)c1cc(Cl)nn1-c1ncccc1Cl	> 200
NC(=O)c1cc2cc(Cl)ccc2c(Cl)c1NC(=O)c1cc(Br)nn1-c1ncccc1Cl [P.25, 5-bromo-N-(3-carbamoyl-1,6-dichloro-2-naphthyl)-2-(3-chloro-2-pyridyl)pyrazole-3-carboxamide]	50 (≈ 92.7 µM)
CNC(=O)c1cc2cc(Br)ccc2c(Cl)c1NC(=O)c1cc(C(F)(F)F)nn1-c1ncccc1Cl	> 200
NC(=O)c1cc2cc(Br)ccc2c(Cl)c1NC(=O)c1cc(Br)nn1-c1ncccc1Cl [P.27, 5-bromo-N-(6-bromo-3-carbamoyl-1-chloro-2-naphthyl)-2-(3-chloro-2-pyridyl)pyrazole-3-carboxamide]	50 (≈ 85.6 µM)

Same assay, conditions: strain R1; CTPR used as standard

SMILES	resistance factor
CNC(=O)c1cc(Cl)cc(C)c1NC(=O)c1cc(Br)nn1-c1ncccc1Cl [CTPR, chlorantraniliprole, reference compound]	146
